Half-life and peak emission data for three molecules are collected here from patent US12409238B2, “Silicone-based dyes with short wavelength infrared absorption and emission and methods for making and using the same” (UNIVERSITY OF MISSISSIPPI, priority 2021, dated 2025).

The structures appear in SMILES notation.

The nature of data set [1]: Stability study: half-life in neutral aqueous solutions. It counts as physicochemical. Conditions: xylyl substituted derivatives. From the text:
The introduction of the meta-xylyl ring on the silicon-rosindolizine bridge as found to impart substantial stability compared to a tolyl ring on the silicon-rosindolizine bride. […] This increased stability is critically important to some biological imaging applications. The meta-xylyl substituted derivative retain very similar spectral properties to the tolyl derivatives with absorption and emission observed in the SWIR region. […] Application in night vision, solar cells, and photodetectors are also possible with materials absorbing in this spectral region. […] The quantum yield is near 0.01-0.05% in these environments with peak emission of SiRos1 at ˜1350 nm (FIG. 13) and peak emission of SiRos2>1550 nm.

Data set [2] is described as follows: Emission studies (SWIR emission spectra, 980 nm excitation). The class given is physicochemical. Conditions: organic solvent (dichloromethane) / water when encapsulated in a polymer; SiRos1 in DCM (FIG. 13). As to the method:
0.1 mg of silicone-based compound was combined with 10 mg DSPE-mPEG2000 (1% loading of dye by mass) in 3 mL of dichloromethane (DCM) in a 10 mL scintillation vial. The solution was vortexed for 10 seconds to homogenously mix the components. DCM was evaporated from the solution on a rotary evaporator at 50° C. until the solution forms a thin paste around the vial. Subsequently, the vial was placed on high vacuum for a half an hour to remove any residual DCM. Next, 3 mL of D2O was added and the resulting mixture was sonicated for one minute with gentle swirling to dissolve the polymer and dye together. The mixture was syringe filtered (0.45 μm) to remove any unencapsulated compound.
The emission spectra of the dyes were recorded from 1000-2500 nm using a liquid nitrogen cooled InAs fluorimeter from Horiba. A 980 nm DPSS (diode pumped solid state laser, max power 2 W) laser was used as the excitation source and the chopper signal was split from the chopper control to the lock-in-amplifier as a reference signal and the trigger signal to the laser controller. All studies were performed at 1e-5 M in DCM or 0.1 mg of dye per 3 mL D2O solution (for D2O, the dyes were solubilized in a commercially available DSPE-mPEG2000 nanoparticle, preparation previously supplied).

For the molecule `CCCCC(CC)C[Si]1(CC(CC)CCCC)c2cc(-c3c(-c4ccccc4)c(-c4ccc(N(C)C)cc4)c4cc(-c5ccc(N(C)C)cc5)ccn34)ccc2C(c2c(C)cccc2C)=c2cc/c(=C3\C(c4ccccc4)=C(c4ccc(N(C)C)cc4)c4cc(-c5ccc(N(C)C)cc5)cc[n+]43)cc21.[O-][Cl+3]([O-])([O-])[O-]` (centres unmarked) [SiRos3, (Z)-3-(7-(1,7-bis(4-(dimethylamino)phenyl)-2-phenylindolizin-3-yl)-10-(2,6-dimethylphenyl)-5,5-bis(2-ethylhexyl)dibenzo[b,e]silin-3(5H)-ylidene)-1,7-bis(4-(dimethylamino)phenyl)-2-phenyl-3H-indolizin-4-ium perchlorate], the half-life result in data set [1] was “longer than a week”.
In data set [2], `CCCCC(CC)C[Si]1(CC(CC)CCCC)c2cc(-c3c(-c4ccccc4)c(C)c4ccccn34)ccc2C(c2c(C)cccc2C)=c2cc/c(=C3\C(c4ccccc4)=C(C)c4cccc[n+]43)cc21.[O-][Cl+3]([O-])([O-])[O-]` (centres unmarked) [SiRos1, (Z)-3-(10-(2,6-dimethylphenyl)-5,5-bis(2-ethylhexyl)-7-(1-methyl-2-phenylindolizin-3-yl)dibenzo[b,e]silin-3(5H)-ylidene)-1-methyl-2-phenyl-3H-indolizin-4-ium perchlorate] showed a peak emission of about 1350 nm. Further, the half-life entry in data set [1] is given as “longer than a week”.
Turning to `CCCCC(CC)CC1=C(c2ccccc2)/C(=c2\ccc3c(c2)[Si](CC(CC)CCCC)(CC(CC)CCCC)c2cc(-c4c(-c5ccccc5)c(CC(CC)CCCC)c5cc(-c6ccc(N(C)C)cc6)ccn45)ccc2C=3c2c(C)cccc2C)[n+]2ccc(-c3ccc(N(C)C)cc3)cc21.[O-][Cl+3]([O-])([O-])[O-]` (centres unmarked) [SiRos2, (Z)-7-(4-(dimethylamino)phenyl)-3-(7-(7-(4-(dimethylamino)phenyl)-1-(2-ethylhexyl)-2-phenylindolizin-3-yl)-10-(2,6-dimethylphenyl)-5,5-bis(2-ethylhexyl)dibenzo[b,e]silin-3(5H)-ylidene)-1-(2-ethylhexyl)-2-phenyl-3H-indolizin-4-ium perchlorate], the peak emission in data set [2] is listed as over 1550 nm. Further, the half-life result in data set [1] is “longer than a week”.
